The text below walks through data of patent publication US20250009737A1, “COMPOUNDS AND METHODS FOR THE TARGETED DEGRADATION OF ANDROGEN RECEPTOR” (Arvinas Operations, Inc., priority 2023, published 2025).

For one series, the system named is human hepatocytes. Kind of series: Hepatocyte viability, upfront MTT assay. The series is classed as cell-based. The conditions noted are these: 0.03-30 μM, after 2 days treatment. The procedure: Positive control inducers behaved as expected (Table 1). Maximal 2.5-8.8-fold induction (4-6% of positive control response) in CYP3A4 mRNA were found at 0.1-0.3 μM in all three donors, and 3.1-fold for CYP2C8 mRNA in one of three lots (donor 3 only) at 0.1 μM (28% of positive control response). The induction response was attenuated at higher concentrations (Table 1).
On the technique in general: Tetrazolium dyes change colour on reduction, which living cells bring about.

The target in another series is T1, OATP1B3 (Homo sapiens, UniProt Q9NPD5).
T1 sequence (Q9NPD5 1-702): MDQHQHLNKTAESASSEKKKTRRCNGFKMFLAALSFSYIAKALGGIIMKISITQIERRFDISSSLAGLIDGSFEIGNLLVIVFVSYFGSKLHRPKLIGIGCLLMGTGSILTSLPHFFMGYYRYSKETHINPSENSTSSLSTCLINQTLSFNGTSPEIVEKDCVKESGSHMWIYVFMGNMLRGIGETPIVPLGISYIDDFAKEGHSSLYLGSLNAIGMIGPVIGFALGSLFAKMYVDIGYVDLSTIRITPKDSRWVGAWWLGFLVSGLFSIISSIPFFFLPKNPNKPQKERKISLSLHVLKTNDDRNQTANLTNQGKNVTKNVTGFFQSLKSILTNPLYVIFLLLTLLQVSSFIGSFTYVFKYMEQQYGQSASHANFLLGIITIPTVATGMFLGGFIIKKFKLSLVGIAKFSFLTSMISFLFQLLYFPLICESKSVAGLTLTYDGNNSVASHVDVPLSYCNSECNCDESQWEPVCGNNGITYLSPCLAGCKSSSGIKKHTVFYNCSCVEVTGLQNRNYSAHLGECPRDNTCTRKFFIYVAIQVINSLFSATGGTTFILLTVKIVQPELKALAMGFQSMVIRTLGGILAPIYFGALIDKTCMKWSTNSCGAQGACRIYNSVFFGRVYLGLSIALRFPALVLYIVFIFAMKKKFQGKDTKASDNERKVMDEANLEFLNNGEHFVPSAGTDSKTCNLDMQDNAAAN
Kind of series: OATP1B3 uptake transporter inhibition in MDCKII or HEK293 cells. The settings on record: substrate Rosuvastatin (1 μM). The series is classed as in vitro ADME. The arrangement: expressed in transfected cells; host or cells: MDCKII or HEK293. The procedure:
(§1) In addition, the inhibition potential against efflux transporters (P-glycoprotein (Pgp) and breast cancer resistance protein (BCRP)) and uptake transporters (MATE1, MATE2-K, OATP1B1, OATP1B3, OAT1, OAT3, and OCT2) was assessed using single transporter over-expressed cell monolayers (MDCK II or HEK293) or inside-out vesicles.
(§2) The potential of Compound A to inhibit Pgp or BCRP was tested for bidirectional transport of the probe substrates in Pgp or BCRP-expressed MDCKII and control monolayers at Compound A concentrations of 0.07-5 μM. Pgp and BCR inhibition were tested in inside-out membrane vesicles prepared from HEK293 overexpressing human Pgp and BCR at concentrations of 0.01-9 μM Compound A in the presence of 4 mM MgATP or MgAMP.

Series [1] addresses T2, OATP1B1 (Homo sapiens, UniProt Q9Y6L6).
T2 sequence (Q9Y6L6 1-691): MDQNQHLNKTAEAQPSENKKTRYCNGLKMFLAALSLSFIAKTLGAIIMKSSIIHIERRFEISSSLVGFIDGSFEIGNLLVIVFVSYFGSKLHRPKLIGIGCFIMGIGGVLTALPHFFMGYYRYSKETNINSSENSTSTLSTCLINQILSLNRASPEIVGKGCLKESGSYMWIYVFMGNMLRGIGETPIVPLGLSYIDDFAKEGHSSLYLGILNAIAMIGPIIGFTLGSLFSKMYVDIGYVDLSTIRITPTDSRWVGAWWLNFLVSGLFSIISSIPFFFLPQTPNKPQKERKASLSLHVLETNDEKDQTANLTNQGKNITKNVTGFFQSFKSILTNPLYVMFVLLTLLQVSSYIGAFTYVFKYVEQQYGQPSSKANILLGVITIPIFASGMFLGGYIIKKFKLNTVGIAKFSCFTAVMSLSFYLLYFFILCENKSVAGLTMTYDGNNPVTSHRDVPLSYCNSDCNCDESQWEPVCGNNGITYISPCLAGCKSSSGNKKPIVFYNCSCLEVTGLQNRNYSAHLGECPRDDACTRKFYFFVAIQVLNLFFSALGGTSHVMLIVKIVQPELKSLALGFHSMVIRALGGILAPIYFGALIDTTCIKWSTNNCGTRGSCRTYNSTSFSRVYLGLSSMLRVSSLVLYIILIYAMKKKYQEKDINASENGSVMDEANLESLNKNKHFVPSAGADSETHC
Nature of the series: OATP1B1 uptake transporter substrate assay. Further details: expressed in transfected cells. The series is classed as in vitro ADME. The conditions noted are these: OATP1B1-expressing vs control cell. How it is done: The potential of Compound A to act as an efflux transporter Pgp and BCRP as well as uptake transporter OATP1B1 and 1B3 were assessed in Caco-2 and single transporter over-expressed HEK29 cells, respectively.
The potential of Compound A to act as a substrate for Pgp and BCRP was examined in Caco-2 cells at the concentrations of 0.075, 0.75, 3.75 and 7.5 μM containing 1% of BSA. After 120 min incubation, the bidirectional permeability of Compound A was determined by LC-MS/MS. The involvement of Compound A as a substrate of OATP1B1 and OATP1B3 was assessed in the uptake transporter substrate assays at 4 concentrations (0.1, 0.5, 1 and 5 μM). Compound A in cell lysates was determined by LC-MS/MS.

The target in series [2] is T2, OATP1B1. Kind of series: OATP1B1 uptake transporter inhibition in MDCKII or HEK293 cells. The arrangement: expressed in transfected cells; host or cells: MDCKII or HEK293. Format: in vitro ADME. The conditions noted are these: substrate Rosuvastatin (1 μM). The procedure:
as §1, §2

In the next series the test system is CYP1A2 mRNA. Kind of series: CYP1A2 mRNA induction in cryopreserved human hepatocytes. The conditions noted are these: 0.03-30 μM; for CYP1A2 mRNA Fold induction: human hepatocytes, 48 hours. The series is classed as in vitro ADME. The procedure:
The induction potential of Compound A on CYP enzymes was assessed in cryopreserved human hepatocytes from three donors. Following treatment for with Compound A at concentrations of 0.03-30 μM for 48 hours, mRNA levels for CYP1A2, 2B6, 2C8, 2C9, 2C19, and 3A4 were determined by semiquantitative real-time polymerase chain reaction (PCR). Test article concentrations during 24-hour incubation were determined. The potential of Compound A to cause direct and time-dependent inhibition (TDI) of the activities of CYP1A2, 2B6, 2C8, 2C9, 2C19, 2D6, and 3A4 was evaluated in pooled human liver microsomes (HLM) at 0.2-15 μM. Probe substrate concentrations around Km were used for direction inhibition and initial TDI assays. For TDI assay, Compound A was pre-incubated with pooled HLM with and without NADPH for 30 minutes prior to incubation with a single concentration of probe substrate.

The structures appear in SMILES notation.

As usually defined, the IC50 is the point on the concentration scale where inhibition reaches its midpoint. High values mean weaker potency, low ones greater potency. For the molecule `COc1cc(O[C@H]2C(C)(C)[C@H](NC(=O)c3ccc(N4CCC(CN5CCN(c6ccc(C(=O)N[C@H]7CCC(=O)NC7=O)c(F)c6)CC5)CC4)cc3)C2(C)C)ccc1C#N` [Compound A, 4-(4-((1-(4-(((1R,3R)-3-(4-cyano-3-methoxyphenoxy)-2,2,4,4-tetramethylcyclobutyl)carbamoyl)phenyl)piperidin-4-yl)methyl)piperazin-1-yl)-N—((S)-2,6-dioxopiperidin-3-yl)-2-fluorobenzamide], in the series with human hepatocytes, the Hepatocyte viability result is “no significant decrease”. For the same molecule, the IC50 on OATP1B3 and on OATP1B1 [2] was more than 3.75 µM each time. Further, on OATP1B1 [1], the “Fold accumulation, OATP1B1” value is reported as less than 2 fold. The “Substrate for OATP1B1” value on OATP1B1 [1] (0.1, 0.5, 1 and 5 μM) was “not a substrate”. Moreover, the “CYP1A2 mRNA Fold induction” value in the series with CYP1A2 mRNA (Donor 1), with CYP1A2 mRNA (Donor 2) and in the series with CYP1A2 mRNA (Donor 3) was less than 2 Fold in each case. For the same molecule, the “Induction of CYP1A2 mRNA” value with CYP1A2 mRNA (all three donors of human hepatocytes) is “did not induce”.
